Data from patent US20260217706A1, “HETEROCYCLIC COMPOUNDS, PREPARATION METHOD THEREFOR AND USE THEREOF” (GUANGZHOU YUFAN NANTU BIOTECHNOLOGIES CO., LTD, priority 2023, published 2026).

Target: CBL-B protein (Homo sapiens, UniProt Q13191)
Experiment: CBL-B binding experiment (Streptavidin-Tb cryptate / Ligand L1 displacement)
Conditions: 8 nM CBL-B protein, 25° C., 60 minutes; Ki=Relative IC50/2
Experimental: The reaction system mainly includes 1× buffer, 20 mM HEPES pH 7.5, 150 mM NaCl, 0.01% Triton X-100, 0.5 mM TCEP, and 0.1% ug/ml BSA. The compound is continuously diluted with DMSO for 10 concentration points, and 150 nL is transferred to the experimental plate. The experimental reaction begins after adding 8 nM of CBL-B protein and the reaction is carried out at 25° C. for 60 minutes. […] After an additional 60 minutes of incubation at room temperature, the experimental plate is read using an EnVision plate. The luminescence signal values were converted to percentage inhibition rates. Inhibition %=(Sample value−Maximum value)/(Minimum value−Maximum value)×100. The minimum value refers to the measured value in the wells without CBL-B protein but with DMSO and Ligand, while the maximum value refers to the measured value in the wells with DMSO, CBL-B protein, and Ligand. The IC50 values are calculated by XLFit (version 5.3.1.3) in Excel. Equation: Y=Bottom+(Top−Bottom)/(1+(IC50/X)^HillSlope); Ki=Relative IC50/2.

CBL-B protein, sequence (Q13191 whole entry): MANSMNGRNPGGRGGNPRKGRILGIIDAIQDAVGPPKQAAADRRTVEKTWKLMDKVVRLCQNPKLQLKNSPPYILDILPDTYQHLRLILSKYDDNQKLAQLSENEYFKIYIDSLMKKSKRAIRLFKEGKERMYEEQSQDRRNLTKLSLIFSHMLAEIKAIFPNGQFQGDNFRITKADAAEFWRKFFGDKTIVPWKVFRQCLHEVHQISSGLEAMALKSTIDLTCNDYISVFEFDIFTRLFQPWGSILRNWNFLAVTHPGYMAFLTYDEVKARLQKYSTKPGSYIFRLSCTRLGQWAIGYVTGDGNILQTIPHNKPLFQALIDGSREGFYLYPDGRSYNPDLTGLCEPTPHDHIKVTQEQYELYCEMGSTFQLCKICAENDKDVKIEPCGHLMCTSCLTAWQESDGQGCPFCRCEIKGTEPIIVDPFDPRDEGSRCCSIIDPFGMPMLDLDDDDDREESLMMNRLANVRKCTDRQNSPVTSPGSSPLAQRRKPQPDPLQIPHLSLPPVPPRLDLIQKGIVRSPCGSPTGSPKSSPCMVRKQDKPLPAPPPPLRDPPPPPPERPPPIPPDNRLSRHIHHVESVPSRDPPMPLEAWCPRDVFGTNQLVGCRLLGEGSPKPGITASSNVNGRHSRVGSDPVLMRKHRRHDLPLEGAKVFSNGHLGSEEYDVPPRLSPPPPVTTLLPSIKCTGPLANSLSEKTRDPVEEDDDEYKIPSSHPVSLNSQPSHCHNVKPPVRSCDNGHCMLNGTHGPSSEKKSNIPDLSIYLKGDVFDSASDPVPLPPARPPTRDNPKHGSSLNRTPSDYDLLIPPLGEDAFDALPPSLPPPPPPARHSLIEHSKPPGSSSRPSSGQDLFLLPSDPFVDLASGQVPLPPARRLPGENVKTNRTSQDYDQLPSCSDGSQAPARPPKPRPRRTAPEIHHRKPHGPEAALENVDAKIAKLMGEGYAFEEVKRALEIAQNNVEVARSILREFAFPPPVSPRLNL

Compound	Ki
Cn1cnnc1C1(c2cccc(-n3cc(C(F)(F)F)c4cc(CN5C[C@@H]6C[C@H]5CO6)[nH]c4c3=O)c2)CCC1 [Compound T031, 6-[3-[1-(4-methyl-1,2,4-triazol-3-yl)cyclobutyl]phenyl]-2-[[(1 S,4S)-2-oxa-5-azabicyclo [2.2.1]heptan-5-yl]methyl]-4-(trifluoromethyl)-1H-pyrrolo[2,3-c]pyridin-7-one]	< 50 nM
Cn1cnnc1C1(c2cccc(-n3cc(C(F)(F)F)c4cc(CN5C[C@H]6C[C@@H]5CO6)[nH]c4c3=O)c2)CCC1 [Compound T032, 6-[3-[1-(4-methyl-1,2,4-triazol-3-yl)cyclobutyl]phenyl]-2-[[(1R,4R)-2-oxa-5-azabicyclo[2.2.1]heptan-5-yl]methyl]-4-(trifluoromethyl)-1H-pyrrolo[2,3-c]pyridin-7-one]	< 50 nM
C[C@H]1CCCN(Cc2cc3c(C4CC4)cn(-c4cccc([C@]5(Cc6nncn6C)C[C@@H](C)C5)c4)c(=O)c3[nH]2)C1 [Compound T036, 4-cyclopropyl-6-(3-((1r,3S)-3-methyl-1-((4-methyl-4H-1,2,4-triazol-3-yl)methyl)cyclobutyl)phenyl)-2-(((S)-3-methylpiperidin-1-yl)methyl)-1,6-dihydro-7H-pyrrolo[2,3-c]pyridin-7-one]	50 to 100 nM
Cn1cnnc1C1(c2cccc(-n3cc(C(F)(F)F)c4cc(CN5CCC[C@@H](O)C5)[nH]c4c3=O)c2)CCC1 [Compound T039, 2-[[(3R)-3-hydroxy-1-piperidyl]methyl]-6-[3-[1-(4-methyl-1,2,4-triazol-3-yl)cyclobutyl]phenyl]-4-(trifluoromethyl)-1H-pyrrolo[2,3-c]pyridin-7-one]	< 50 nM
Cn1cnnc1C1(c2cccc(-n3cc(C(F)(F)F)c4cc(CN5CCC[C@H](F)C5)[nH]c4c3=O)c2)CCC1 [Compound T048, 2-[[(3S)-3-fluoro-1-piperidyl]methyl]-6-[3-[1-(4-methyl-1,2,4-triazol-3-yl)cyclobutyl]phenyl]-4-(trifluoromethyl)-1H-pyrrolo[2,3-c]pyridin-7-one]	< 50 nM
Cn1cnnc1C1(c2cccc(-n3cc(C(F)(F)F)c4cc(CN5C[C@@H](F)[C@@H](F)C5)[nH]c4c3=O)c2)CCC1 [Compound T049, 2-[[(3R,4S)-3,4-difluoropyrrolidin-1-yl]methyl]-6-[3-[1-(4-methyl-1,2,4-triazol-3-yl)cyclobutyl]phenyl]-4-(trifluoromethyl)-1H-pyrrolo[2,3-c]pyridin-7-one]	< 50 nM
Cn1cnnc1C1(c2cccc(-n3cc(C(F)(F)F)c4cc(CN5C6CCCC5CC6)[nH]c4c3=O)c2)CCC1 [Compound T052, 2-(8-azabicyclo[3.2.1]octan-8-ylmethyl)-6-[3-[1-(4-methyl-1,2,4-triazol-3-yl)cyclobutyl]phenyl]-4-(trifluoromethyl)-1H-pyrrolo[2,3-c]pyridin-7-one]	< 50 nM
C[C@H]1CCCN(Cc2cc3c(C(F)(F)F)cn(-c4cccc([C@@H](c5nncn5C)C5CCC5)c4)c(=O)c3[nH]2)C1 [Compound T059, 6-(3-((S)-cyclobutyl (4-methyl-4H-1,2,4-triazol-3-yl)methyl)phenyl)-2-(((S)-3-methylpiperidin-1-yl)methyl)-4-(trifluoromethyl)-1,6-dihydro-7H-pyrrolo[2,3-c]pyridin-7-one]	< 50 nM
Cn1cnnc1C1(c2cccc(-n3cc(C(F)(F)F)c4cc(CN5CC[C@@H](O)[C@@H](F)C5)[nH]c4c3=O)c2)CCC1 [Compound T072, 2-(((3 S,4R)-3-fluoro-4-hydroxypiperidin-1-yl)methyl)-6-(3-(1-(4-methyl-4H-1,2,4-triazol-3-yl)cyclobutyl)phenyl)-4-(trifluoromethyl)-1,6-dihydro-7H-pyrrolo[2,3-c]pyridin-7-one]	< 50 nM
C[C@H]1CCCN(Cc2cc3c(C(F)(F)F)cn(-c4ccc([C@]5(c6nncn6C)C[C@@H](C)C5)s4)c(=O)c3[nH]2)C1 [Compound T073, 6-(5-((1r,3S)-3-methyl-1-(4-methyl-4H-1,2,4-triazol-3-yl)cyclobutyl)thiophen-2-yl)-2-(((S)-3-methylpiperidin-1-yl)methyl)-4-(trifluoromethyl)-1,6-dihydro-7H-pyrrolo[2,3-c]pyridin-7-one]	< 50 nM

Now from value to compound:

Ki	Compound
< 50 nM	Cn1cnnc1C1(c2cccc(-n3cc(C(F)(F)F)c4cc(CN5CCC[C@@H](F)C5)[nH]c4c3=O)c2)CCC1 [Compound T046, 2-[[(3R)-3-fluoro-1-piperidyl]methyl]-6-[3-[1-(4-methyl-1,2,4-triazol-3-yl)cyclobutyl]phenyl]-4-(trifluoromethyl)-1H-pyrrolo[2,3-c]pyridin-7-one]
< 50 nM	Cn1cnnc1C1(c2cccc(-n3cc(C(F)(F)F)c4cc(CNCC(F)(F)CO)[nH]c4c3=O)c2)CCC1 [Compound T050, 2-[[(2,2-difluoro-3-hydroxy-propyl)amino]methyl]-6-[3-[1-(4-methyl-1,2,4-triazol-3-yl)cyclobutyl]phenyl]-4-(trifluoromethyl)-1H-pyrrolo[2,3-c]pyridin-7-one]
< 50 nM	Cn1cnnc1C1(c2cccc(-n3cc(C(F)(F)F)c4cc(CN5CCC6(CC5)CC6)[nH]c4c3=O)c2)CCC1 [Compound T051, 2-(6-azaspiro[2.5]octan-6-ylmethyl)-6-[3-[1-(4-methyl-1,2,4-triazol-3-yl)cyclobutyl]phenyl]-4-(trifluoromethyl)-1H-pyrrolo[2,3-c]pyridin-7-one]
< 50 nM	CN(Cc1cc2c(C(F)(F)F)cn(-c3cccc(C4(c5nncn5C)CCC4)c3)c(=O)c2[nH]1)CC(F)(F)F [Compound T057, 2-((methyl(2,2,2-trifluoroethyl)amino)methyl)-6-(3-(1-(4-methyl-4H-1,2,4-triazol-3-yl)cyclobutyl)phenyl)-4-(trifluoromethyl)-1,6-dihydro-7H-pyrrolo[2,3-c]pyridin-7-one]
< 50 nM	C[C@H]1CCCN(Cc2cc3c(C(F)(F)F)cn(-c4cccc(C5(Cc6nncn6C)COC5)c4)c(=O)c3[nH]2)C1 [Compound T061, 2-[[(3S)-3-methyl-1-piperidyl]methyl]-6-[3-[3-[(4-methyl-1,2,4-triazol-3-yl)methyl]oxetan-3-yl]phenyl]-4-(trifluoromethyl)-1H-pyrrolo[2,3-c]pyridin-7-one]
< 50 nM	Cn1cnnc1C1(c2cccc(-n3cc(C(F)(F)F)c4cc(CN5CCC[C@](C)(O)C5)[nH]c4c3=O)c2)CCC1 [Compound T064, (S)-2-((3-hydroxy-3-methylpiperidin-1-yl)methyl)-6-(3-(1-(4-methyl-4H-1,2,4-triazol-3-yl)cyclobutyl)phenyl)-4-(trifluoromethyl)-1,6-dihydro-7H-pyrrolo[2,3-c]pyridin-7-one]
< 50 nM	Cn1cnnc1C1(c2cccc(-n3cc(C(F)(F)F)c4cc(CN5CCC[C@@](C)(O)C5)[nH]c4c3=O)c2)CCC1 [Compound T065, 2-[[(3R)-3-hydroxy-3-methyl-1-piperidyl]methyl]-6-[3-[1-(4-methyl-1,2,4-triazol-3-yl)cyclobutyl]phenyl]-4-(trifluoromethyl)-1H-pyrrolo[2,3-c]pyridin-7-one]
< 50 nM	C[C@H]1CCCN(Cc2cc3c(C(F)(F)F)cn(-c4ccc([C@]5(c6nncn6C)C[C@H](C)C5)s4)c(=O)c3[nH]2)C1 [Compound T074, 6-(5-((1s,3R)-3-methyl-1-(4-methyl-4H-1,2,4-triazol-3-yl)cyclobutyl)thiophen-2-yl)-2-(((S)-3-methylpiperidin-1-yl)methyl)-4-(trifluoromethyl)-1,6-dihydro-7H-pyrrolo[2,3-c]pyridin-7-one]
